Laboratory results from patent US20170081338A1, “SUBSTITUTED HETEROARYL COMPOUNDS AND METHODS OF USE” (Sunshine Lake Pharma Co., Ltd., priority 2015, published 2017).

Tests used:
[1] = Pharmacokinetics after intravenous and oral administration in rats; type: in vivo; details: for Clearance (CL) after iv dosing / AUC(0-t) / half-life / Vd: dose 1 mg/kg, iv dosing; for F: oral bioavailability; for AUC(0-t) / half-life / Vd: rat, plasma; for Vd: read-out: Vss
In short: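 Compounds dosed IV at 0.5, 1 or 2 mg/kg and orally at 0.5, 1, 5 or 10 mg/kg in rats, as solution, suspension or capsule formulations. Serial blood sampled out to 24 h and plasma stored frozen. Plasma levels quantified by LC/MS/MS in ESI MRM mode.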

Aurora-B (h) = target: T1, Aurora-B (h) (Homo sapiens, UniProt Q96GD4); test: Aurora-B (h) kinase assay; type: biochemical
T1 construct: purchased Millipore UK Ltd (contract assay service)
Method: (§1) Kinase assays can be performed by measurement of incorporation of γ-^33P ATP into immobilized myelin basic protein (MBP). High binding white 384 well plates (Greiner) are coated with MBP (Sigma #M-1891) by incubation of 60 μL/well of 20 μg/mL MBP in Tris-buffered saline (TBS; 50 mM Tris pH 8.0, 138 mM NaCl, 2.7 mM KCl) for 24 h at 4° C. Plates are washed 3× with 100 μL TBS. Kinase reactions are carried out in a total volume of 34 μL in kinase buffer (according to the need to make, for example, 5 mM Hepes pH 7.6, 15 mM NaCl, 0.01% bovine gamma globulin (Sigma #1-5506), 10 mM MgCl2, 1 mM DTT, 0.02% TritonX-100). Compound dilutions are performed in DMSO and added to assay wells to a final DMSO concentration of 1%. Each data point is measured in duplicate, and at least two duplicate assays are performed for each individual compound determination. Enzyme is added to final concentrations of 10 nM or 20 nM, for example. A mixture of unlabeled ATP and γ-^33P ATP is added to start the reaction (2×10^6 cpm of γ-^33P ATP per well (3000 Ci/mmole) and 10 μM unlabeled ATP, typically. The reactions are carried out for 1 h at room temperature with shaking. Plates are washed 7× with TBS, followed by the addition of 50 µL/well scintillation fluid (Wallac). Plates are read using a Wallac Trilux counter. This is only one format of such assays; various other formats are possible, as known to one skilled in the art.
(§2) The above assay procedure can be used to determine the IC50 for inhibition and/or the inhibition constant, Ki. The IC50 is defined as the concentration of compound required to reduce the enzyme activity by 50% under the condition of the assay. The IC50 value is estimated by preparing a 10 point curve using a 1/2 log dilution series (for example, a typical curve may be prepared using the following compound concentrations: 3 μM, 1 μM, 0.3 μM, 0.1 μM, 0.03 μM, 0.01 μM, 0.003 μM, 0.001 μM, 0.0003 μM and 0 μM).
(§3) Aurora-B (h) is incubated with 8 mM MOPS pH 7.0, 0.2 mM EDTA, 30 μM AKRRRLSSLRA, 10 mM MgAcetate and [γ-^33PATP] (specific activity approx. 500 cpm/pmol, concentration as required). The reaction is initiated by the addition of the MgATP mix. After incubation for 40 minutes at room temperature, the reaction is stopped by the addition of a 3% phosphoric acid solution. 10 μL of the reaction is then spotted onto a P30 filtermat and washed three times for 5 minutes in 75 mM phosphoric acid and once in methanol prior to drying and scintillation counting.
(§4) The kinase assays described herein were performed at Millipore UK Ltd, Dundee Technology Park, Dundee DD2 1SW, UK.

Aurora-A (h) = target: T2, Aurora-A (h) (Homo sapiens, UniProt O14965); test: Aurora-A (h) kinase assay; type: biochemical
T2 construct: purchased Millipore UK Ltd (contract assay service)
T2 sequence (O14965 1-403): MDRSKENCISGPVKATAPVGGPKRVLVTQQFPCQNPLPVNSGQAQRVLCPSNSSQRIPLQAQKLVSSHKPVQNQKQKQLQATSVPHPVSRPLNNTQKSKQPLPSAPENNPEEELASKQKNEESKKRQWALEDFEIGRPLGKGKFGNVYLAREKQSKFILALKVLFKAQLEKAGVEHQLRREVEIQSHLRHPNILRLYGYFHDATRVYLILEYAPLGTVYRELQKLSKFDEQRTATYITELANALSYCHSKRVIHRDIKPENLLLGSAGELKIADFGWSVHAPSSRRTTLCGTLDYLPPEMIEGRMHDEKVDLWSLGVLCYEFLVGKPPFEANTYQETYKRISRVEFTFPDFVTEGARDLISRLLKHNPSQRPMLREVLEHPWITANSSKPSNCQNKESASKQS
Method: as §2
as §3, with “Aurora-A (h)” for “Aurora-B (h)”, “EDTA, 200” for “EDTA, 30”, “μM LRRASLG (Kemptide),” for “μM AKRRRLSSLRA,”, “and [γ-^33P-ATP]” for “and [γ-^33PATP]”, “of” for “of a”
as §4

JAK1 (h) = target: T3, JAK1 (h) (Homo sapiens, UniProt P23458); test: JAK1 (h) kinase assay; type: biochemical
T3 construct: purchased Millipore UK Ltd (contract assay service)
Method: as §1, §2
JAK1 (h) is incubated with 20 mM Tris/HCl pH 7.5, 0.2 mM EDTA, 500 μM GEEPLYWSFPAKKK, 10 mM MgAcetate and [γ-^33P-ATP] (specific activity approx. 500 cpm/pmol, concentration as required). The reaction is initiated by the addition of the MgATP mix. After incubation for 40 minutes at room temperature, the reaction is stopped by the addition of 3% phosphoric acid solution. 10 μL of the reaction is then spotted onto a P30 filtermat and washed three times for 5 minutes in 75 mM phosphoric acid and once in methanol prior to drying and scintillation counting.
as §4

T1 sequence (Q96GD4 whole entry): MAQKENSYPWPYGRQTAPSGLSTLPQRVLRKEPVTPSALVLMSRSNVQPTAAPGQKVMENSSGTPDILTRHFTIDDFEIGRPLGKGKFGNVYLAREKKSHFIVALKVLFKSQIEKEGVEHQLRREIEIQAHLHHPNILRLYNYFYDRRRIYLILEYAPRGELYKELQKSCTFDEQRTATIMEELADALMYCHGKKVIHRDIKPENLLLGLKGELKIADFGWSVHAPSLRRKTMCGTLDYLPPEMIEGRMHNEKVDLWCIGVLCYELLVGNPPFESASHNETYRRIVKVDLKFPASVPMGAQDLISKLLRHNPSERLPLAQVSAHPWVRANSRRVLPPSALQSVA
T3 sequence (P23458 whole entry): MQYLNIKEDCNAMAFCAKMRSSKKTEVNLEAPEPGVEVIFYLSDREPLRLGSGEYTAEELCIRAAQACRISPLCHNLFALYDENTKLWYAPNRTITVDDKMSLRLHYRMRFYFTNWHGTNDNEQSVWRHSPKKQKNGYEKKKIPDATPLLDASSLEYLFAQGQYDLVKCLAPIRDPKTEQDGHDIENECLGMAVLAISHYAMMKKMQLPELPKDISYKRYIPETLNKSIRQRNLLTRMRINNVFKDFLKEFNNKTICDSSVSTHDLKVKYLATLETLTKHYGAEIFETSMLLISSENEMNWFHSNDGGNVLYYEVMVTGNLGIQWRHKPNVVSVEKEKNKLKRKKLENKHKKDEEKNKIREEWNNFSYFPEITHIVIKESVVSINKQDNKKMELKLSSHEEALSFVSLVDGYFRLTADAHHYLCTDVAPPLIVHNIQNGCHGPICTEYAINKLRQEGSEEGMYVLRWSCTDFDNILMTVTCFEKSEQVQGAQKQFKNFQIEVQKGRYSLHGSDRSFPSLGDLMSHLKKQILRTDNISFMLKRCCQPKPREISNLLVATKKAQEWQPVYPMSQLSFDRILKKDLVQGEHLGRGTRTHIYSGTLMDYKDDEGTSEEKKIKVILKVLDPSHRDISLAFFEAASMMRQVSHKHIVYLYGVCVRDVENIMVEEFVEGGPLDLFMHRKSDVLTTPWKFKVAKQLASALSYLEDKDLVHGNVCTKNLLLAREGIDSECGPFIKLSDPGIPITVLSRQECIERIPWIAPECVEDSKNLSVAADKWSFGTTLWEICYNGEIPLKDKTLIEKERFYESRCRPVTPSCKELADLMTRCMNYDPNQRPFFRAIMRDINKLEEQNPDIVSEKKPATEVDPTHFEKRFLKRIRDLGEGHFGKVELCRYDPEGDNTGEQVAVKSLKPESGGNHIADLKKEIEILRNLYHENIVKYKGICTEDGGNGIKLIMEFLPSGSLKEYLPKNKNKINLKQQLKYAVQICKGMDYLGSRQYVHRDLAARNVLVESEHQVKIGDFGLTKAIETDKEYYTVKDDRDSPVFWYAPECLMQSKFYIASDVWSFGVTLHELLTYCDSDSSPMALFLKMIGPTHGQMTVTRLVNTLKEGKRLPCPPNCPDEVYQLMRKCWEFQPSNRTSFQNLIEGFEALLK

Compound | Clearance (CL) after iv dosing [1] [mL/min/kg] | F [1] [%] | AUC(0-t) [1] [ng·h/mL] | half-life [1] [min] | Vd [1] [L/kg] | IC50 (Aurora-B (h)) [nM] | IC50 (Aurora-A (h)) [nM] | IC50 (JAK1 (h)) [nM]
Cn1cc(Nc2ncc(Cl)c(N[C@@H]3COC4C3OC[C@@H]4NS(=O)(=O)CC3CCC3)n2)cn1 (stereo partly drawn) [Ex. 31, N-((3S,6R)-6-((5-chloro-2-((1-methyl-1H-pyrazol-4-yl)amino)pyrimidin-4-yl)amino)hexahydrofuro[3,2-b]furan-3-yl)-1-cyclobutylmethanesulfonamide] | 18.8 | 88.1 | 947 | 37.2 | 0.71 | 18 | 12 | –
Cn1cc(Nc2ncc(Cl)c(N[C@@H]3COC4C3OC[C@@H]4NS(=O)(=O)CC3CCCO3)n2)cn1 (stereo partly drawn) [Ex. 34, N-((3S,6R)-6-((5-chloro-2-((1-methyl-1H-pyrazol-4-yl)amino)pyrimidin-4-yl)amino)hexahydrofuro[3,2-b]furan-3-yl)-1-(tetrahydrofuran-2-yl)methanesulfonamide] | – | 28.9 | 1540 | 37.8 | 1.23 | 21 | 24 | –
CCC(C)CS(=O)(=O)N[C@H]1COC2C1OC[C@H]2Nc1nc(Nc2cnn(C)c2)ncc1Cl (stereo partly drawn) [Ex. 33, N-((3S,6R)-6-((5-chloro-2-((1-methyl-1H-pyrazol-4-yl)amino)pyrimidin-4-yl)amino)hexahydrofuro[3,2-b]furan-3-yl)-2-methylbutane-1-sulfonamide] | 23.2 | 53.6 | 725 | 17.4 | 0.57 | 25 | 18 | –

Now those with a lower IC50 (Aurora-B (h)), led by results:

Clearance (CL) after iv dosing [1] [mL/min/kg] | F [1] [%] | AUC(0-t) [1] [ng·h/mL] | half-life [1] [min] | Vd [1] [L/kg] | IC50 (Aurora-B (h)) [nM] | IC50 (Aurora-A (h)) [nM] | IC50 (JAK1 (h)) [nM] | Compound
24.8 | 63.7 | 680 | 18 | 0.69 | 6 | 2 | 24 | Cn1cc(Nc2ncc(Cl)c(N[C@@H]3COC4C3OC[C@@H]4NS(=O)(=O)CC3CCCC3)n2)cn1 (stereo partly drawn) [Ex. 21, N-((3S,6R)-6-((5-chloro-2-((1-methyl-1H-pyrazol-4-yl)amino)pyrimidin-4-yl)amino)hexahydrofuro[3,2-b]furan-3-yl)-1-cyclopentylmethanesulfonamide]
24.2 | 67.4 | 696 | 37.8 | 0.82 | 8 | 17 | – | Cn1cc(Nc2ncc(Cl)c(N[C@@H]3COC4C3OC[C@@H]4NS(=O)(=O)CC(C)(C)C)n2)cn1 (stereo partly drawn) [Ex. 30, N-((3S,6R)-6-((5-chloro-2-((1-methyl-1H-pyrazol-4-yl)amino)pyrimidin-4-yl)amino)hexahydrofuro[3,2-b]furan-3-yl)-2,2-dimethylpropane-1-sulfonamide]
